The text below walks through data of US6677347B2, “Sulfonamido ether substituted imidazoquinolines” (3M Innovative Properties Company, priority 2000, dated 2004).

Usually minimal effective concentration stands for the lowest level tested that produced the effect sought.

One assay concerns interferon (α). Kind of assay: Cytokine Induction in Human Cells: interferon (α) by ELISA. The arrangement: key to Lowest Effective Concentration (μM) Interferon: *: no induction was seen at any of the tested concentrations; generally the highest concentration tested was 10 or 30 μM. It is filed as cell-based. The following applies: human PBMC, 18 to 24 hours incubation, lowest concentration found to induce interferon. An excerpt: (§1) An in vitro human blood cell system is used to assess cytokine induction. Activity is based on the measurement of interferon and tumor necrosis factor (α) (IFN and TNF, respectively) secreted into culture media as described by Testerman et. al. In “Cytokine Induction by the Immunomodulators Imiquimod and S-27609”, Journal of Leukocyte Biology, 58, 365-372 (September, 1995).
(§2) Whole blood from healthy human donors is collected by venipuncture into EDTA vacutainer tubes. Peripheral blood mononuclear cells (PBMC) are separated from whole blood by density gradient centrifugation using Histopaque®-1077. Blood is diluted 1:1 with Dulbecco's Phosphate Buffered Saline (DPBS) or Hank's Balanced Salts Solution (HBSS). The PBMC layer is collected and washed twice with DPBS or HBSS and resuspended at 4×10^6 cells/mL in RPMI complete. The PBMC suspension is added to 48 well flat bottom sterile tissue culture plates (Costar, Cambridge, Mass. or Becton Dickinson Labware, Lincoln Park, N.J.) containing an equal volume of RPMI complete media containing test compound.
(§3) The compounds are solubilized in dimethyl sulfoxide (DMSO). The DMSO concentration should not exceed a final concentration of 1% for addition to the culture wells. The compounds are generally tested at concentrations ranging from 30-0.014 μM.
(§4) The solution of test compound is added at 60 μM to the first well containing RPMI complete and serial 3 fold dilutions are made in the wells. The PBMC suspension is then added to the wells in an equal volume, bringing the test compound concentrations to the desired range (30-0.014 μM). The final concentration of PBMC suspension is 2×10^6 cells/mL. The plates are covered with sterile plastic lids, mixed gently and then incubated for 18 to 24 hours at 37° C. in a 5% carbon dioxide atmosphere.
(§5) Following incubation the plates are centrifuged for 10 minutes at 1000 rpm (˜200×g) at 4° C. The cell-free culture supernatant is removed with a sterile polypropylene pipet and transferred to sterile polypropylene tubes. Samples are maintained at −30 to −70° C. until analysis. The samples are analyzed for interferon (α) by ELISA and for tumor necrosis factor (α) by ELISA or IGEN Assay
Interferon (α) concentration is determined by ELISA using a Human Multi-Species kit from PBL Biomedical Laboratories, New Brunswick, N.J. Results are expressed in pg/mL.
(§6) The table below lists the lowest concentration found to induce interferon and the lowest concentration found to induce tumor necrosis factor for each compound.
For orientation: ELISA stands for enzyme-linked immunosorbent assay.

The test system of assay [1] is tumor necrosis factor (α). Kind of assay: Cytokine Induction in Human Cells: tumor necrosis factor (α) by ELISA or IGEN assay. It is filed as cell-based. The arrangement: key to Lowest Effective Concentration (μM) Tumor Necrosis Factor: *: no induction was seen at any of the tested concentrations; generally the highest concentration tested was 10 or 30 μM. The following applies: human PBMC, 18 to 24 hours incubation, lowest concentration found to induce tumor necrosis factor.
Source text: as §1, §2, §3, §4, §5
Tumor necrosis factor (α) (TNF) concentration is determined using ELISA kits available from Biosource International, Camarillo, Calif. Alternately, the TNF concentration can be determined by Origen® M-Series Immunoassay and read on an IGEN M-8 analyzer from IGEN International, Gaithersburg, Md. The immunoassay uses a human TNF capture and detection antibody pair from Biosource International, Camarillo, Calif. Results are expressed in pg/mL.
as §6

Regarding `CCCCc1nc2c(N)nc3ccccc3c2n1CCOCCNS(=O)(=O)CC` [Example 6], the minimal effective concentration in the assay with interferon (α) came out at 0.001 µM; in assay [1] it was 1 µM.
On the same counts, the results for `CCCCc1nc2c(N)nc3ccccc3c2n1CCOCCNS(=O)(=O)C(C)C` [Example 7] are 0.01 µM and 1 µM.
On the same counts, the results for `CCCCc1nc2c(N)nc3ccccc3c2n1CCOCCNS(=O)(=O)N(C)C` [Example 8] are 0.01 µM and 1 µM.
The like results for `CCCCc1nc2c(N)nc3ccccc3c2n1CCOCCNS(=O)(=O)CCCC` [Example 9] were, in that order, 0.1 µM and 1 µM.
Take `CCCCc1nc2c(N)nc3ccccc3c2n1CCOCCNS(=O)(=O)c1ccccc1` [Example 10]: the minimal effective concentration came to 1 µM with interferon (α) and 10 µM in assay [1].
On the same counts, the results for `CCCCc1nc2c(N)nc3ccccc3c2n1CCOCCNS(=O)(=O)c1cccs1` [Example 11] are 1 µM and 10 µM.
On the same counts, the results for `CCCCc1nc2c(N)nc3ccccc3c2n1CCOCCNS(=O)(=O)Cc1ccccc1` [Example 12] are 0.1 µM and 10 µM.
Turning to `CCCCc1nc2c(N)nc3ccccc3c2n1CCOCCNS(=O)(=O)c1cccc(F)c1` [Example 13], the minimal effective concentration stood at 1 µM in the assay on interferon (α) and 10 µM in assay [1].
The like results for `CCCCc1nc2c(N)nc3ccccc3c2n1CCOCCNS(=O)(=O)c1ccc(C#N)cc1` [Example 14] were, in that order, 1 µM and 10 µM.
The like results for `CCCCc1nc2c(N)nc3ccccc3c2n1CCOCCNS(=O)(=O)c1cccc(C#N)c1` [Example 15] were, in that order, 10 µM and 10 µM.
On the same counts, the results for `CCCCc1nc2c(N)nc3ccccc3c2n1CCOCCNS(=O)(=O)c1ccc(OC)cc1` [Example 16] are 1 µM and 10 µM.
Turning to `CCCCc1nc2c(N)nc3ccccc3c2n1CCOCCNS(=O)(=O)c1ccc(F)cc1F` [Example 17], the minimal effective concentration with interferon (α) was found to be 1 µM; in assay [1] it was 10 µM.
As to `CCCCc1nc2c(N)nc3ccccc3c2n1CCOCCNS(=O)(=O)c1cccc2ccccc12` [Example 18], the “Lowest Effective Concentration (μM) Interferon” value in the assay with interferon (α) is listed as “*”. The same molecule gave a minimal effective concentration in assay [1] of 10 µM.
The like results for `CCCCc1nc2c(N)nc3ccccc3c2n1CCOCCNS(=O)(=O)c1ccc2ccccc2c1` [Example 19] were, in that order, “*” and 10 µM.
On to `CCCCc1nc2c(N)nc3ccccc3c2n1CCOCCNS(=O)(=O)c1cccc2cccnc12` [Example 20], for which the values for the minimal effective concentration (in the assay on interferon (α); in assay [1]) were 1 µM and 10 µM, respectively.
The like results for `CCCCc1nc2c(N)nc3ccccc3c2n1CCOCCNS(=O)(=O)c1ccc(C(F)(F)F)cc1` [Example 21] were, in that order, 10 µM and 10 µM.
The like results for `CCCCc1nc2c(N)nc3ccccc3c2n1CCOCCNS(=O)(=O)c1ccc(-c2ccccc2)cc1` [Example 22] were, in that order, 0.0001 µM and 10 µM.
`CCCCc1nc2c(N)nc3ccccc3c2n1CCOCCNS(=O)(=O)c1ccc(S(C)(=O)=O)cc1` [Example 23]: the minimal effective concentration with interferon (α) was 0.0001 µM; in assay [1] it was 10 µM.
The like results for `CCCCc1nc2c(N)nc3ccccc3c2n1CCOCCNS(=O)(=O)c1ccc(OC(F)(F)F)cc1` [Example 24] were, in that order, 0.0001 µM and 10 µM.
In the assay with interferon (α), `CCCCc1nc2c(N)nc3ccccc3c2n1CCOCCNS(=O)(=O)c1ccc(/N=N/c2ccc(N(C)C)cc2)cc1` [Example 25] had a minimal effective concentration of 0.0001 µM. In assay [1], the “Lowest Effective Concentration (μM) Tumor Necrosis Factor” value is reported as “*”.
On to `CCCCc1nc2c(N)nc3ccccc3c2n1CCOCCNS(=O)(=O)C[C@@]12CC[C@@H](CC1=O)C2(C)C` [Example 26], for which the minimal effective concentration was 0.01 µM with interferon (α) and 10 µM in assay [1].
The like results for `CCC(COCCC1CCN(S(=O)(=O)C(C)C)CC1)n1cnc2c(N)nc3ccccc3c21` (stereo not drawn) [Example 27] were, in that order, 0.1 µM and 1 µM.
On the same counts, the results for `CCC(COCCC1CCN(S(=O)(=O)N(C)C)CC1)n1cnc2c(N)nc3ccccc3c21` (stereo not drawn) [Example 28] are 0.1 µM and 1 µM.
On the same counts, the results for `CCCCS(=O)(=O)N1CCC(CCOCC(CC)n2cnc3c(N)nc4ccccc4c32)CC1` (stereo not drawn) [Example 29] are 1 µM and 10 µM.
Take `CCC(COCCC1CCN(S(=O)(=O)c2ccccc2)CC1)n1cnc2c(N)nc3ccccc3c21` (stereo not drawn) [Example 30]: the minimal effective concentration with interferon (α) came to 1 µM; in assay [1], 10 µM.
The like results for `CCC(COCCC1CCN(S(=O)(=O)c2cccs2)CC1)n1cnc2c(N)nc3ccccc3c21` (stereo not drawn) [Example 31] were, in that order, 1 µM and 10 µM.
For the molecule `CCC(COCCC1CCN(S(=O)(=O)c2cccc(F)c2)CC1)n1cnc2c(N)nc3ccccc3c21` (stereo not drawn) [Example 32], the minimal effective concentration (with interferon (α); in assay [1]) was 1 µM each time.
As to `CCC(COCCC1CCN(S(=O)(=O)c2cccc(C#N)c2)CC1)n1cnc2c(N)nc3ccccc3c21` (stereo not drawn) [Example 33], the minimal effective concentration (in the assay on interferon (α); in assay [1]) was 1 µM throughout.
Consider `CCC(COCCC1CCN(S(=O)(=O)c2ccc(OC)cc2)CC1)n1cnc2c(N)nc3ccccc3c21` (stereo not drawn) [Example 34], for which the minimal effective concentration (in the assay with interferon (α); in assay [1]) was 1 µM throughout.
As to `CCC(COCCC1CCN(S(=O)(=O)c2ccc(F)cc2F)CC1)n1cnc2c(N)nc3ccccc3c21` (stereo not drawn) [Example 35], the minimal effective concentration (in the assay on interferon (α); in assay [1]) was 1 µM in each case.
Consider `CCC(COCCC1CCN(S(=O)(=O)c2cccc3cccnc23)CC1)n1cnc2c(N)nc3ccccc3c21` (stereo not drawn) [Example 36], for which the minimal effective concentration with interferon (α) amounted to 1 µM; in assay [1] it was 10 µM.
Consider `CCC(COCCC1CCN(S(=O)(=O)c2ccc(S(C)(=O)=O)cc2)CC1)n1cnc2c(N)nc3ccccc3c21` (stereo not drawn) [Example 37], for which the minimal effective concentration amounted to 0.1 µM with interferon (α) and 1 µM in assay [1].
Take `CCC(COCCC1CCN(S(=O)(=O)c2ccc(OC(F)(F)F)cc2)CC1)n1cnc2c(N)nc3ccccc3c21` (stereo not drawn) [Example 38]: the “Lowest Effective Concentration (μM) Interferon” value with interferon (α) is listed as “*”. Also, the “Lowest Effective Concentration (μM) Tumor Necrosis Factor” value in assay [1] is reported as “*”.
As for `CCC(COCCC1CCN(S(=O)(=O)c2ccc(/N=N/c3ccc(N(C)C)cc3)cc2)CC1)n1cnc2c(N)nc3ccccc3c21` (stereo not drawn) [Example 39], the minimal effective concentration with interferon (α) stood at 1 µM. For the same molecule, in assay [1], the “Lowest Effective Concentration (μM) Tumor Necrosis Factor” value is reported as “*”.
Regarding `Nc1nc2ccccc2c2c1ncn2CCOCCNS(=O)(=O)c1ccccc1` [Example 41], the results for the minimal effective concentration (in the assay on interferon (α); in assay [1]) were 10 µM and 1 µM, respectively.
On the same counts, the results for `Nc1nc2ccccc2c2c1ncn2CCOCCNS(=O)(=O)c1cccc(F)c1` [Example 42] are 10 µM and 1 µM.
On the same counts, the results for `COc1ccc(S(=O)(=O)NCCOCCn2cnc3c(N)nc4ccccc4c32)cc1` [Example 43] are 10 µM and 10 µM.
The like results for `Nc1nc2ccccc2c2c1ncn2CCOCCNS(=O)(=O)c1ccc(F)cc1F` [Example 44] were, in that order, 1 µM and 10 µM.
In the case of `Nc1nc2ccccc2c2c1ncn2CCOCCNS(=O)(=O)c1ccc2ccccc2c1` [Example 45], in the assay with interferon (α), the “Lowest Effective Concentration (μM) Interferon” value was “*”. For the same molecule, the “Lowest Effective Concentration (μM) Tumor Necrosis Factor” value in assay [1] is reported as “*”.
